Test results: patent publication US20050026068A1, “Polycarbocyclic derivatives for modification of resist, optical and etch resistance properties” (priority 2001, published 2005)

Legend:
[1] = Sublimation of additive from PMMA film on hotplate heating (absorption spectra); assay type: physicochemical
Experimental: The same procedure was repeated for heating at 110° C., 130° C. and 160° C. The spectra taken each time were compared and the possible sublimation of the additive after the different thermal treatment procedures was calculated.
The following explanations apply to all tables. […] SUBL=temperature of sublimation.

[2] = UV absorbance of PMMA films loaded with additive; assay type: physicochemical; conditions: additive 5% w/w of PMMA; value includes PMMA absorbance (higher by 0.07)
[3] = UV absorbance of PMMA films loaded with additive; assay type: physicochemical; conditions: additive 7.5% w/w of PMMA
Experimental: A quantity of a polyaromatic compound (i.e.compound (XI), Table 9), was added in part of this solution at a 7.5% w/w of the polymer concentration.
The solution was stirred at room temperature for a few hours and the polyaromatic compound was dissolved. Then, a small amount of the solution was used to spin coat a film on quartz substrate at 4000 rpm for 30 sec. The thickness of this film was measured by a profilometer and found 12250 Å. The absorption spectrum of the film was taken at vertical incidence.
The same procedure was repeated, using the initial PMMA solution this time. A new film was spun and its thickness was found 13000 Å. […]

[4] = Solubility of additive in the solvents used (PGMEA, MIBK)
Experimental: It is important that the selected additive is soluble in the solvents commonly used in the microlithography process. […] After film formation the amount of the additive sublimed during the baking cycles was tested. Evaluation of spectroscopic and etch resistance enhancement followed.
SOL=solubility at the solvents used (##=very bad, #=bad, *=good, **=very good). SUBL=temperature of sublimation.

Nc1ccc2cc3ccccc3cc2c1 [2-aminoanthracene]
SUBL (temperature of sublimation) ([1]; additive 5% w/w in PMMA film): 110 °C | UV 193 nm (absorbance) [2]: 0.51 /0.5 μm

O=C(O)c1c2ccccc2cc2ccccc12 [9-anthracene carboxylic acid]
SUBL (temperature of sublimation) ([1]; additive 5% w/w in PMMA film): 110 °C | UV 193 nm (absorbance) [2]: 0.46 /0.5 μm

OCc1c2ccccc2cc2ccccc12 [9-anthracene methanol]
SUBL (temperature of sublimation) ([1]; additive 5% w/w in PMMA film): 110 °C | UV 193 nm (absorbance) [2]: 0.43 /0.5 μm

O=C(OCC(COC(=O)C12CC3CC(CC(C3)C1)C2)Cc1c2ccccc2cc2ccccc12)C12CC3CC(CC(C3)C1)C2 (stereo not drawn) [Compound XIII, Mixed anthryl ester]
UV 193 nm (absorbance) [3]: 0.17 /0.5 μm | UV 248 nm (absorbance) [3]: 0.45 /0.5 μm | SUBL (temperature of sublimation) ([1]; additive 7.5% w/w in PMMA film): 160 °C

CC(=O)C1CCC2C3CC=C4CC(OC(=O)c5c6ccccc6cc6ccccc56)CCC4(C)C3CCC12C (stereo not drawn) [Compound XIV, 5-pregnen-3β-yl-(9-anthryl-methylate)-20-one]
UV 193 nm (absorbance) [3]: 0.20 /0.5 μm | UV 248 nm (absorbance) [3]: 0.52 /0.5 μm | SUBL (temperature of sublimation) ([1]; additive 7.5% w/w in PMMA film): 160 °C

O=C(O)CCC(=O)OC(Cc1c2ccccc2cc2ccccc12)Cc1c2ccccc2cc2ccccc12 [II, 1,3-di-(9-anthryl2-propyl hydrogen succinate]
UV 193 nm (absorbance) [3]: 0.33 /0.5 μm | UV 248 nm (absorbance) [3]: 1.25 /0.5 μm | SUBL (temperature of sublimation) ([1]; additive 7.5% w/w in PMMA film): 160 °C | solubility (in words) [4]: improved solubility

c1ccc2c(CNCc3c4ccccc4cc4ccccc34)c3ccccc3cc2c1 [IV, N,N-Di-(9-anthrylmethyl)-amine]
UV 193 nm (absorbance) [3]: 0.22 /0.5 μm | UV 248 nm (absorbance) [3]: 0.31 /0.5 μm | SUBL (temperature of sublimation) ([1]; additive 7.5% w/w in PMMA film): 160 °C

O=C(CCC(=O)OC(Cc1c2ccccc2cc2ccccc12)Cc1c2ccccc2cc2ccccc12)OCc1c2ccccc2cc2ccccc12 [IX, 1,3-Di-(9-anthryl)-2-propyl 9-anthrylmethyl Succinate]
UV 193 nm (absorbance) [3]: 1.41 /0.5 μm | UV 248 nm (absorbance) [3]: 1.74 /0.5 μm | SUBL (temperature of sublimation) ([1]; additive 7.5% w/w in PMMA film): 160 °C | solubility (in words) [4]: decreased solubility

OC(Cc1c2ccccc2cc2ccccc12)Cc1c2ccccc2cc2ccccc12 [I]
UV 193 nm (absorbance) [3]: 0.16 /0.5 μm | UV 248 nm (absorbance) [3]: 0.48 /0.5 μm | SUBL (temperature of sublimation) ([1]; additive 7.5% w/w in PMMA film): 160 °C | solubility (in words) [4]: improved solubility

O=C(OCCOc1c2ccccc2cc2ccccc12)OCCOc1c2ccccc2cc2ccccc12 [VI, Di-2-(9-anthryloxy)-ethyl carbonate]
UV 193 nm (absorbance) [3]: 0.24 /0.5 μm | UV 248 nm (absorbance) [3]: 1.04 /0.5 μm | SUBL (temperature of sublimation) ([1]; additive 7.5% w/w in PMMA film): 130 °C

c1ccc2c(CNC3CCCCC3NCc3c4ccccc4cc4ccccc34)c3ccccc3cc2c1 (stereo not drawn) [VIII, trans-1,2-Di-(9-aminomethyl-anthryl)-cyclohexane]
solubility (in words) [4]: improved solubility

O=C(OCc1c2ccccc2cc2ccccc12)c1c2ccccc2cc2ccccc12 [VII]
UV 193 nm (absorbance) [3]: 0.35 /0.5 μm | UV 248 nm (absorbance) [3]: 1.16 /0.5 μm | SUBL (temperature of sublimation) ([1]; additive 7.5% w/w in PMMA film): 160 °C | solubility (in words) [4]: not satisfactory

O=C(CCC(=O)OC(Cc1c2ccccc2cc2ccccc12)Cc1c2ccccc2cc2ccccc12)OCC(COC(=O)CCC(=O)OC(Cc1c2ccccc2cc2ccccc12)Cc1c2ccccc2cc2ccccc12)Cc1c2ccccc2cc2ccccc12 [X, Penta-anthryl ester]
UV 193 nm (absorbance) [3]: 0.33 /0.5 μm | UV 248 nm (absorbance) [3]: 0.75 /0.5 μm | SUBL (temperature of sublimation) ([1]; additive 7.5% w/w in PMMA film): 160 °C | solubility (in words) [4]: decreased solubility

O=C(OCc1c2ccccc2cc2ccccc12)C12CC3CC(CC(C3)C1)C2 [XI, 1-adamantyl 9-anthrylmethylate]
UV 193 nm (absorbance) [3]: 0.05 /0.5 μm | UV 248 nm (absorbance) [3]: 0.36 /0.5 μm | SUBL (temperature of sublimation) ([1]; additive 7.5% w/w in PMMA film): 160 °C | solubility (in words) [4]: very good solubility

c1ccc2cc3ccccc3cc2c1 [anthracene]
SUBL (temperature of sublimation) ([1]; additive 5% w/w in PMMA film): 110 °C | UV 193 nm (absorbance) [2]: 0.38 /0.5 μm
